Assay results: PubChem BioAssay AID256 (DTP/NCI, 2004)
Toxic doses and inconclusive results are not listed. The calls were made as follows: active = survival T/C of 150% or more; inactive = T/C below 125% in these data.

Tested on: CD2F1 mice, L1210 leukemia ip, survival T/C
Experiment: NCI In Vivo Anticancer Drug Screen. Data for tumor model L1210 Leukemia (intraperitoneal) in CD2F1 (CDF1) mice
Conditions: higher = longer survival
Procedure, shortened: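 Implant tumor; dose compound or vehicle; measure endpoint in both groups; report treated divided by control.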

[1] = endpoint: mean survival time, dose: 100.0 mg/kg/injection, schedule: Q01DX001 (ip), vehicle: saline with Tween-80
[2] = endpoint: mean survival time, dose: 400.0 mg/kg/injection, schedule: Q01DX001 (ip), vehicle: saline with Tween-80
[3] = endpoint: mean survival time, dose: 100.0 mg/kg/injection, schedule: Q04DX003 (ip), vehicle: saline with Tween-80
[4] = endpoint: mean survival time, dose: 200.0 mg/kg/injection, schedule: Q04DX003 (ip), vehicle: saline with Tween-80
[5] = endpoint: mean survival time, dose: 400.0 mg/kg/injection, schedule: Q04DX003 (ip), vehicle: saline with Tween-80
[6] = endpoint: mean survival time, dose: 100.0 mg/kg/injection, schedule: Q01DX009 (ip), vehicle: saline with Tween-80
[7] = endpoint: mean survival time, dose: 200.0 mg/kg/injection, schedule: Q01DX009 (ip), vehicle: saline with Tween-80
[8] = endpoint: mean survival time, dose: 400.0 mg/kg/injection, schedule: Q01DX009 (ip), vehicle: saline with Tween-80
[9] = endpoint: mean survival time, dose: 100.0 mg/kg/injection, schedule: Q04DX002 (ip), vehicle: saline with Tween-80
[10] = endpoint: mean survival time, dose: 200.0 mg/kg/injection, schedule: Q04DX002 (ip), vehicle: saline with Tween-80
[11] = endpoint: mean survival time, dose: 400.0 mg/kg/injection, schedule: Q04DX002 (ip), vehicle: saline with Tween-80

Measured: T/C

Cc1cc(C)c(SC2c3ccccc3-c3ccccc32)c(C)c1
inactive: endpoint: mean survival time, dose: 100.0 mg/kg/injection, schedule: Q01DX001 (ip), vehicle: saline 94 % of control | endpoint: mean survival time, dose: 100.0 mg/kg/injection, schedule: Q04DX003 (ip), vehicle: saline 98 % of control | endpoint: mean survival time, dose: 200.0 mg/kg/injection, schedule: Q01DX001 (ip), vehicle: saline 95 % of control | endpoint: mean survival time, dose: 200.0 mg/kg/injection, schedule: Q04DX003 (ip), vehicle: saline 90 % of control | endpoint: mean survival time, dose: 400.0 mg/kg/injection, schedule: Q01DX001 (ip), vehicle: saline 94 % of control | endpoint: mean survival time, dose: 400.0 mg/kg/injection, schedule: Q04DX003 (ip), vehicle: saline 97 % of control

CNC(=O)C1CCC(CC2CCCCC2)CC1 (stereo unspecified)
inactive: [1] 93 % of control | endpoint: mean survival time, dose: 200.0 mg/kg/injection, schedule: Q01DX001 (ip), vehicle: saline with Tween-80 93 % of control | [2] 102 % of control

CCCCC[CH2][Sn](=[O])[CH2]CCCCC
inactive: [3] 100 % of control | [4] 97 % of control | [5] 111 % of control

N#Cc1cc(Cl)c(OCc2ccccc2)c(Cl)c1
inactive: [1] 87 % of control | [2] 101 % of control

CC1(C)CC(O)(Cc2ccccc2)C(=O)c2ccccc21 (stereo unspecified)
inactive: endpoint: mean survival time, dose: 25.0 mg/kg/injection, schedule: Q01DX009 (ip), vehicle: water 95 % of control | endpoint: mean survival time, dose: 50.0 mg/kg/injection, schedule: Q01DX009 (ip), vehicle: water 92 % of control | endpoint: mean survival time, dose: 100.0 mg/kg/injection, schedule: Q01DX009 (ip), vehicle: water 95 % of control | endpoint: mean survival time, dose: 200.0 mg/kg/injection, schedule: Q01DX009 (ip), vehicle: water 95 % of control | endpoint: mean survival time, dose: 400.0 mg/kg/injection, schedule: Q01DX009 (ip), vehicle: water 97 % of control

O=C(O)CC(Sc1ccccc1)c1ccccc1 (stereo unspecified)
inactive: endpoint: mean survival time, dose: 100.0 mg/kg/injection, schedule: Q04DX003 (ip), vehicle: other 97 % of control | endpoint: mean survival time, dose: 200.0 mg/kg/injection, schedule: Q04DX003 (ip), vehicle: other 101 % of control

COc1cc(/C(C)=N\O)ccc1O
inactive: endpoint: mean survival time, dose: 100.0 mg/kg/injection, schedule: Q01DX001 (ip), vehicle: other 102 % of control | endpoint: mean survival time, dose: 100.0 mg/kg/injection, schedule: Q01DX009 (ip), vehicle: other 107 % of control | endpoint: mean survival time, dose: 200.0 mg/kg/injection, schedule: Q01DX001 (ip), vehicle: other 108 % of control | endpoint: mean survival time, dose: 200.0 mg/kg/injection, schedule: Q01DX009 (ip), vehicle: other 102 % of control | endpoint: mean survival time, dose: 400.0 mg/kg/injection, schedule: Q01DX001 (ip), vehicle: other 98 % of control | endpoint: mean survival time, dose: 400.0 mg/kg/injection, schedule: Q01DX009 (ip), vehicle: other 90 % of control

NC(=O)c1nccnc1C(N)=O
inactive: endpoint: mean survival time, dose: 100.0 mg/kg/injection, schedule: Q01DX001 (ip), vehicle: Klucel (hydroxypropylcellulose) (HPC) 101 % of control | endpoint: mean survival time, dose: 200.0 mg/kg/injection, schedule: Q01DX001 (ip), vehicle: Klucel (hydroxypropylcellulose) (HPC) 108 % of control | endpoint: mean survival time, dose: 400.0 mg/kg/injection, schedule: Q01DX001 (ip), vehicle: Klucel (hydroxypropylcellulose) (HPC) 101 % of control

C#CCOCCC(C(=O)OCC)C(=O)OCC
inactive: endpoint: mean survival time, dose: 100.0 mg/kg/injection, schedule: Q04DX003 (ip), vehicle: acetone 108 % of control | endpoint: mean survival time, dose: 200.0 mg/kg/injection, schedule: Q04DX003 (ip), vehicle: acetone 103 % of control | endpoint: mean survival time, dose: 400.0 mg/kg/injection, schedule: Q04DX003 (ip), vehicle: acetone 110 % of control

Cn1c(N)n[nH]c1=S
inactive: [3] 93 % of control | [4] 108 % of control | [5] 88 % of control

Nc1ccc(-c2c(N)nc(Br)c3ccccc23)cc1
inactive: endpoint: mean survival time, dose: 50.0 mg/kg/injection, schedule: Q04DX003 (ip), vehicle: DMSO 98 % of control | endpoint: mean survival time, dose: 100.0 mg/kg/injection, schedule: Q04DX003 (ip), vehicle: DMSO 93 % of control | endpoint: mean survival time, dose: 200.0 mg/kg/injection, schedule: Q04DX003 (ip), vehicle: DMSO 110 % of control | endpoint: mean survival time, dose: 400.0 mg/kg/injection, schedule: Q04DX003 (ip), vehicle: DMSO 104 % of control

CCSC#N
inactive: endpoint: mean survival time, dose: 2.5 mg/kg/injection, schedule: Q01DX009 (ip), vehicle: Klucel (hydroxypropylcellulose) (HPC) 98 % of control | endpoint: mean survival time, dose: 5.0 mg/kg/injection, schedule: Q01DX009 (ip), vehicle: Klucel (hydroxypropylcellulose) (HPC) 102 % of control | endpoint: mean survival time, dose: 10.0 mg/kg/injection, schedule: Q01DX009 (ip), vehicle: Klucel (hydroxypropylcellulose) (HPC) 102 % of control

Cc1ccc(C)c(NC(=O)c2cccc(Cl)c2)c1
inactive: [6] 89 % of control | [3] 94 % of control | [7] 94 % of control | [4] 94 % of control | [8] 102 % of control | [5] 94 % of control

CN1C(=O)CN(CCN2CC(=O)N(c3ccccc3)C2=S)C1=S
inactive: endpoint: mean survival time, dose: 50.0 mg/kg/injection, schedule: Q01DX009 (ip), vehicle: saline with Tween-80 93 % of control | [6] 93 % of control | [7] 89 % of control

O=C(CC(O)(C(F)(F)F)C(F)(F)F)C(=O)c1ccc([N+](=O)[O-])cc1
inactive: [6] 105 % of control | [7] 94 % of control

CCOC(=O)NC1=C(N2CC2)C(=O)C(NC(=O)OCC)=C(N2CC2)C1=O
inactive: endpoint: mean survival time, dose: 1.25 mg/kg/injection, schedule: Q01DX009 (oral), vehicle: other 87 % of control | endpoint: mean survival time, dose: 1.25 mg/kg/injection, schedule: Q01DX009 (oral), vehicle: saline 98 % of control | endpoint: mean survival time, dose: 2.5 mg/kg/injection, schedule: Q01DX009 (oral), vehicle: other 97 % of control | endpoint: mean survival time, dose: 2.5 mg/kg/injection, schedule: Q01DX009 (oral), vehicle: saline 94 % of control | endpoint: mean survival time, dose: 4.0 mg/kg/injection, schedule: Q01DX009 (sc), vehicle: other 93 % of control | endpoint: mean survival time, dose: 10.0 mg/kg/injection, schedule: Q01DX009 (oral), vehicle: other 95 % of control | endpoint: mean survival time, dose: 16.0 mg/kg/injection, schedule: Q04DX003 (ip), vehicle: other 90 % of control | endpoint: mean survival time, dose: 20.0 mg/kg/injection, schedule: Q01DX009 (oral), vehicle: other 87 % of control | endpoint: median survival time, dose: 0.25 mg/kg/injection, schedule: Q01DX009 (ip), vehicle: saline with Tween-80 97 % of control | endpoint: median survival time, dose: 0.5 mg/kg/injection, schedule: Q01DX009 (ip), vehicle: saline with Tween-80 110 % of control | endpoint: median survival time, dose: 1.0 mg/kg/injection, schedule: Q08DX002 (ip), vehicle: saline with Tween-80 110 % of control | endpoint: median survival time, dose: 4.0 mg/kg/injection, schedule: Q01DX009 (ip), vehicle: saline with Tween-80 90 % of control

CSc1nc2c(c(=O)[nH]1)CC(=O)N2
inactive: endpoint: median survival time, dose: 50.0 mg/kg/injection, schedule: Q01DX005 (ip), vehicle: saline 93 % of control | endpoint: median survival time, dose: 100.0 mg/kg/injection, schedule: Q01DX005 (ip), vehicle: saline 91 % of control | endpoint: median survival time, dose: 200.0 mg/kg/injection, schedule: Q01DX005 (ip), vehicle: saline 98 % of control

N#Cc1nnn(C2OC(CO)C(O)C2O)c1C#N (stereo unspecified)
inactive: endpoint: mean survival time, dose: 12.5 mg/kg/injection, schedule: Q01DX005 (ip), vehicle: other 100 % of control | endpoint: mean survival time, dose: 25.0 mg/kg/injection, schedule: Q01DX005 (ip), vehicle: other 97 % of control | endpoint: mean survival time, dose: 50.0 mg/kg/injection, schedule: Q01DX005 (ip), vehicle: other 96 % of control | endpoint: mean survival time, dose: 100.0 mg/kg/injection, schedule: Q01DX005 (ip), vehicle: other 94 % of control | endpoint: mean survival time, dose: 200.0 mg/kg/injection, schedule: Q01DX005 (ip), vehicle: other 102 % of control

COc1ccc(NC(=O)Oc2ccc3ccccc3c2)cc1
inactive: [9] 87 % of control | [10] 93 % of control | [11] 93 % of control

CC(C(=O)c1ccccc1)C(c1ccccc1)N1CCCCC1 (stereo unspecified)
inactive: [1] 92 % of control | [6] 87 % of control | [7] 96 % of control | [2] 90 % of control | [8] 93 % of control

CSc1ccc(OC(=O)C(C)NC(=O)C(CO)NC(=O)OCc2ccccc2)cc1 (stereo unspecified)
inactive: endpoint: mean survival time, dose: 50.0 mg/kg/injection, schedule: Q04DX002 (ip), vehicle: saline with Tween-80 95 % of control | [9] 92 % of control | [10] 95 % of control | [11] 92 % of control

N=C(N)CCCCCCCCC(=N)N
active: endpoint: mean survival time, dose: 0.78 mg/kg/injection, schedule: Q01DX009 (ip), vehicle: saline 162 % of control
inactive: endpoint: mean survival time, dose: 1.56 mg/kg/injection, schedule: Q01DX009 (ip), vehicle: saline 96 % of control | endpoint: mean survival time, dose: 3.12 mg/kg/injection, schedule: Q01DX009 (ip), vehicle: saline 104 % of control | endpoint: mean survival time, dose: 6.25 mg/kg/injection, schedule: Q01DX009 (ip), vehicle: saline 106 % of control | endpoint: mean survival time, dose: 12.5 mg/kg/injection, schedule: Q01DX009 (ip), vehicle: saline 115 % of control
